In assay [1] the test system is isolated stratum corneum. Kind of assay: Keratolytic power, Test 1: counting corneocytes released from patches of isolated stratum corneum. Particulars: 1% by weight solution in PBS + 0.1% Triton X100, pH 7.4, 37° C., 24 hours. Type of assay: cell-based. The method, then:
(§1) The keratolytic power of a number of compounds of the disclosure was studied. This test comprises counting corneocytes released following incubation of patches of isolated stratum corneum in the presence of the test compounds.
(§2) Stratum corneum isolated by trypsin/heat from surgical plasties was used. A number of different stratum corneum samples were used. Discs of 4 mm in diameter were punched out and placed at the bottom of a 96-well plate.
A 1% by weight solution of the compound of Example 1, or (1R,2R)-3-oxo-2-(2Z)pentylcyclopentaneacetic acid (comparative), was prepared in a PBS buffer supplemented with 0.1% of Triton X100. The pH of the solution was adjusted to 7.4.
50 microlitres of test solution or of control solution (PBS buffer supplemented with 0.1% of Triton:X100) were added to each well. Incubation was carried out at 37° C. with stirring for 24 hours.
(§3) 10 microlitres of solution were then withdrawn and were placed in a Malassez cell. The liberated corneocytes were counted under the microscope.
The results obtained are as follows, expressed as the number of liberated corneocytes per microlitre, averaged over three tests. Corneocyte fragments were not counted.

The subject of assay [2] is isolated stratum corneum. The assay can be described thus: Keratolytic power, Test 2: counting corneocytes released from patches of isolated stratum corneum. Type of assay: cell-based. As to conditions: 1% by weight solution in PBS + 0.1% Triton X100, pH 7.4, 37° C., 24 hours; for number of liberated corneocytes per microlitre, Sample 1 (3 tests): Test 2, Sample 1, average over three tests; for number of liberated corneocytes per microlitre, Sample 2 (3 tests): Test 2, Sample 2, average over three tests; for number of liberated corneocytes per microlitre, Average: Test 2, average of Samples 1 and 2. The method, then:
as §1, §2
A 1% by weight solution of the compound of Example 1 or salicylic acid, was prepared in a PBS buffer supplemented with 0.1% of Triton X100. The pH of the solution was adjusted to 7.4.
50 microlitres of test solution or of control solution (PBS buffer supplemented with 0.1% of Triton X100) were added to each well. Incubation was carried out at 37° C. with stirring for 24 hours.
as §3
The results obtained are as follows, expressed as the number of liberated corneocytes per microlitre. Corneocyte fragments were not counted.

Turning to `CC/C=C\C[C@H]1C(=O)CC[C@@H]1CC(=O)O` (racemic) [Example 1, (±)(1R,2R)-3-oxo-2-[(2Z)-2-pentenyl]cyclopentaneacetic acid], the “number of liberated corneocytes per microlitre, Average (3 tests per sample, 3 different samples)” value with isolated stratum corneum [1] is given as 15 ± 5 liberated corneocytes per microlitre. In the assay with isolated stratum corneum [2], the “number of liberated corneocytes per microlitre, Sample 1 (3 tests)” value is reported as 80 ± 4 liberated corneocytes per microlitre; the “number of liberated corneocytes per microlitre, Sample 2 (3 tests)” value is 64 ± 11 liberated corneocytes per microlitre; the “number of liberated corneocytes per microlitre, Average” value is recorded as 72 ± 7 liberated corneocytes per microlitre.
As to `O=C(O)c1ccccc1O` [Salicylic acid, salicylic acid], in the assay with isolated stratum corneum [2], the “number of liberated corneocytes per microlitre, Sample 1 (3 tests)” value is reported as 33 ± 20 liberated corneocytes per microlitre; the “number of liberated corneocytes per microlitre, Sample 2 (3 tests)” value is on record as 21 ± 8 liberated corneocytes per microlitre; the “number of liberated corneocytes per microlitre, Average” value is given as 27 ± 14 liberated corneocytes per microlitre.
For the compound `CC/C=C\C[C@H]1C(=O)CC[C@@H]1CC(=O)O` [Comparative, (1R,2R)-3-oxo-2-(2Z)pentylcyclopentaneacetic acid], the “number of liberated corneocytes per microlitre, Average (3 tests per sample, 3 different samples)” value with isolated stratum corneum [1] is recorded as 12 ± 4 liberated corneocytes per microlitre.

The record behind these values is patent US20030224024A1, “Compositions comprising cyclopentane derivatives and their use” (priority 2002, published 2003).
